Laboratory results taken from PMC11558097, “Enhanced Tumor‐Targeted Delivery of Arginine‐Rich Peptides via a Positive Feedback Loop Orchestrated by Piezo1/integrin β1 Signaling Axis” (Advanced Science, 2024).
Ends that are not written are not given here.

What was measured:
Piezo1 in T24 cells = assay: Flow cytometry of Ca2+ signal and R11 uptake with Piezo1 agonist or inhibitor; type: cell-based, human; conditions: for effect on R11 uptake efficiency and Ca2+ release: T24 cells exposed to R11, Yoda1 10 nM, GsMTx4 2.5 nM
253J cells = assay: Antibody block assay (integrin α2β1 antibody), R11 uptake by flow cytometry; type: cell-based, human; conditions: Anti-integrin α2β1 5 ug/mL for 2 h
Protocol: (§1) Antibody integrin α2β1 (ab30483) used for blocking the binding motif was purchased from ABCAM. Cells were planted in the 6‐well plates and treated with Anti‐integrin α2β1 (5 ug/mL). After incubation for 2 h, the cells were treated with R11 peptides and collected. Then, the cells were trypsinized, washed, and suspended in 1 mL PBS. The fluorescence intensity of 10 000 cells was measured using flow cytometer.

T24 cells [1] = assay: as above; type: cell-based, human; conditions: Anti-integrin α2β1 5 ug/mL for 2 h
Protocol: as §1

[2] = test system: BC cell lines (5637, T24, and 253J); assay: Flow cytometry and fluorescence microscopy, uptake of R11 in BC cell lines versus control cells; type: cell-based, human; conditions: BC cell lines versus Raw264.7 and SV-HUC control cells, R11 100 nM
Protocol: (§2) Flow cytometry was used to measure the fluorescence signal. Cells were seeded in a 6‐well plate at 1.0 × 10^5 cells per well and treated with R11 peptides and a series of inhibitors for 4 h, including NaN3 (active uptake inhibitor, 20 mM), methyl‐β‐cyclodextrin (MβCD: lipid raft‐mediated endocytosis inhibitor, 5 µg mL^−1), EIPA (macropinocytosis inhibitor, […]), Chlorpromazine (CPZ: clathrin‐mediated endocytosis, 5 µg mL^−1) or Dynasore (dynamin‐dependent endocytosis inhibitor, […]) in serum‐free media at 37 °C or 4 °C for 4 h, respectively. Then, the cells were trypsinized, washed, and suspended in 1 mL PBS. The fluorescence intensity of 10 000 cells was measured using a BD LSR II flow cytometer.

bladder tumors = assay: Mouse orthotopic BC model, IVIS imaging after intravesical instillation; type: in vivo; conditions: female nude mice, orthotopic integrin β1-GFP BC model
Protocol: All the animal experiments were carried out following guidelines approved by the ethics committee of Xi'an Jiaotong University, Xi'an, China. Female nude mice aged 4–6 weeks were randomly sorted. After gaseous anesthesia, an intravenous indwelling needle lubricated with paraffin cotton was inserted into the bladder and fixed well. Then, the urine was removed, and the bladder was rinsed with PBS 3 times. Next, the abdominal skin was disinfected by iodine tincture and cut open for approximately 1 cm. GFP‐integrin β1 cells (1 × 10^6/mL) were injected into the bladder wall with an insulin needle under direct visualization. Last, the abdominal wall was stitched and bound with gauze. After 7 days, the effect of bladder tumor implantation was observed. After intravesical perfusion of R11 peptides or gold nanoparticles, tumor‐bearing mice were detected using an in vivo imaging system/IVIS (AniView) to take images. In addition, frozen sections of the tumors were stained with DAPI, and the fluorescence of each section of the tumor was analyzed by fluorescence microscopy.

T24 cells [3] = assay: Cellular uptake pathways, flow cytometry with endocytosis inhibitors; type: cell-based, human; conditions: serum-free media
Protocol: as §2

[4] = biological target: T1, integrin β1 (standard of an integrin β1 ELISA kit) (UniProt P05556 21-728); assay: ELISA; integrin β1 standards (0.5 µg/mL) added to the microplate wells of an integrin β1 ELISA kit, in triplicate; R11-TRITC serially diluted in PBS (0.001-10 000 nM), 2 h at 37 °C; washed; fluorescence of the bound peptide read on a microplate reader; conditions: both partners purified
T1 construct: integrin β1 (ITGB1), standard protein of a commercial ELISA kit; also called ITGB1; integrin β1 standards; source: bought: standard of the integrin β1 ELISA kit, Shanghai Westang Bio-Tech CO., LTD
T1 sequence (P05556 21-728): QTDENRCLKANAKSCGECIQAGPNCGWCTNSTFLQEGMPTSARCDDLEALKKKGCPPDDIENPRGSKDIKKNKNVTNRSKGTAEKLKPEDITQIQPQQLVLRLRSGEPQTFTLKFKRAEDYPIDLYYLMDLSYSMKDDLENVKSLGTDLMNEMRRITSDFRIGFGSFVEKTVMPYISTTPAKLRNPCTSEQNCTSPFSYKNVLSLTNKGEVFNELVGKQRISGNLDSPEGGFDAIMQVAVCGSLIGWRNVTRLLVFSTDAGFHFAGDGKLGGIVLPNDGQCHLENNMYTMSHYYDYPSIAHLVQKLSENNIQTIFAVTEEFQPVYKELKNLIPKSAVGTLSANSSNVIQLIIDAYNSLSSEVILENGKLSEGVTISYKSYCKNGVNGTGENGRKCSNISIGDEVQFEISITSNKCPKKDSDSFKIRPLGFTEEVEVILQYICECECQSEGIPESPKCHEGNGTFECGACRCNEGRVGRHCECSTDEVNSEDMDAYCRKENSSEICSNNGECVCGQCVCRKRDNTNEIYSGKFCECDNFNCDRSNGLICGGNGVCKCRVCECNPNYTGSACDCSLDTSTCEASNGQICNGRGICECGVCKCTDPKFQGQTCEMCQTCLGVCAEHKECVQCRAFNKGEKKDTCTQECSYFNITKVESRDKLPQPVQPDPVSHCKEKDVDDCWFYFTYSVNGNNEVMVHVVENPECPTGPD

N=C(N)NCCC[C@H](NC(=O)[C@H](CCCNC(=N)N)NC(=O)[C@H](CCCNC(=N)N)NC(=O)[C@H](CCCNC(=N)N)NC(=O)[C@H](CCCNC(=N)N)NC(=O)[C@H](CCCNC(=N)N)NC(=O)[C@H](CCCNC(=N)N)NC(=O)[C@H](CCCNC(=N)N)NC(=O)[C@H](CCCNC(=N)N)NC(=O)[C@H](CCCNC(=N)N)NC(=O)[C@H](CCCNC(=N)N)NC(=O)CN)C(=O)O [R11, hendeca‐arginine peptide]
Ca2+ signal (Piezo1 in T24 cells; T24 cells, varying R11 concentrations): increased consistently with the concentration of R11 peptides | uptake of R11 peptides after blocking integrin α2β1 (253J cells): completely inhibited | uptake of R11 peptides after blocking integrin α2β1 (T24 cells [1]): completely inhibited | fluorescence signal of R11 (uptake) [2]: stronger fluorescence signal in BC cell lines compared to control cells | identification of bladder tumors in vivo (IVIS) (bladder tumors): successfully identified bladder tumors in vivo but not adjacent kidney tissues | uptake of R11 with Dynasore (T24 cells [3]; Dynasore 80 µmol mL^−1, 4 h): inhibited uptake partly | uptake of R11 with EIPA (T24 cells [3]; EIPA (macropinocytosis inhibitor) 10 µmol mL^−1, 4 h): suppressed nearly half | uptake of R11 with NaN3 and 4 °C (T24 cells [3]; NaN3 20 mM or 4 °C, 4 h): blocked

Clc1cccc(Cl)c1CSc1nnc(-c2cnccn2)s1 [Yoda1]
effect on R11 uptake efficiency and Ca2+ release (Piezo1 in T24 cells): enhanced both the uptake efficiency and Ca^2+ release

GsMTx4
effect on R11 uptake efficiency and Ca2+ release (Piezo1 in T24 cells): opposite effect

B1: hendeca-arginine peptide (R11), GRRRRRRRRRRR-TRITC (peptide)
peptide: GRRRRRRRRRRR-{TRITC}
notes: designed cell-penetrating peptide: glycine followed by 11 arginines; also called R11 peptides; arginine-rich peptides; source: synthetic peptide, synthesized and purified by GL Biochem Ltd (Shanghai, China)
EC50 [4]: 5.97 nM
